Experimental data taken from patent publication US20160158377A1, “BCL-XL Inhibitory Compounds and Antibody Drug Conjugates Including the Same” (AbbVie Inc., priority 2014, published 2016).
Read-outs that look alike come from different tables or passages of the source.

Experiments:
Bcl-xL = Bcl-xL (Homo sapiens, UniProt Q07817); assay: TR-FRET Bcl-xL binding assay (competition with probe F-Bak)
Procedure: For the assay, test compounds were serially diluted in DMSO starting at 50 μM (2× starting concentration; 10% DMSO) and 10 μL transferred into a 384-well plate. 10 μL of a protein/probe/antibody mix was then added to each well at final concentrations listed below:
The samples were then mixed on a shaker for 1 minute and incubated for an additional 2 hours at room temperature. For each assay plate, a probe/antibody and protein/antibody/probe mixture were included as a negative and a positive control, respectively. Fluorescence was measured on the Envision (Perkin Elmer) using a 340/35 nm excitation filter and 520/525 (F-Bak) and 495/510 nm (Tb-labeled anti-his antibody) emission filters. Dissociation constants (Ki) were determined using Wang's equation (Wang, 1995, FEBS Lett. 360:111-114). The TR-FRET assay can be performed in the presence of varying concentrations of human serum (HS) or fetal bovine serum (FBS). Compounds were tested both without HS and in the presence of 1% HS.

[1] = test system: Molt-4 human acute lymphoblastic leukemia cells; assay: Molt-4 cell viability assay; type: cell-based; settings: 10% human serum, 48 hours, CellTiter-Glo, read-out: Molt-4 Viability EC50 (nM, 10% HS)
Procedure: In one exemplary set of conditions, Molt-4 (ATCC, Manassas, Va.) human acute lymphoblastic leukemia cells were plated 12,500 cells per well in 384-well tissue culture plates (Corning, Corning, N.Y.) in a total volume of 25 μL tissue culture medium supplemented with 10% human serum (Sigma-Aldrich, St. Louis, Mo.) and treated with a 3-fold serial dilution of the compounds of interest from 10 μM to 0.0005 μM. Each concentration was tested in duplicate at least 3 separate times. The number of viable cells following 48 hours of compound treatment was determined using the CellTiter-Glo® Luminescent Cell Viability Assay according to the manufacturer's recommendations (Promega Corp., Madison, Wis.). Compounds were tested in the presence of 10% HS.

circulating platelets [2] = assay: Number of circulating platelets in mice after single intraperitoneal injection; settings: for Time after injection at which thrombocytopenia was maximal: following injection of the compounds
circulating platelets [3] = settings: mouse, in vivo
[4] = in the presence of 1% human serum (HS), read-out: Bcl-xL Binding Ki (nM, 1% HS)
[5] = without human serum, read-out: Bcl-xL Binding Ki

Chain of Bcl-xL (Q07817 whole entry): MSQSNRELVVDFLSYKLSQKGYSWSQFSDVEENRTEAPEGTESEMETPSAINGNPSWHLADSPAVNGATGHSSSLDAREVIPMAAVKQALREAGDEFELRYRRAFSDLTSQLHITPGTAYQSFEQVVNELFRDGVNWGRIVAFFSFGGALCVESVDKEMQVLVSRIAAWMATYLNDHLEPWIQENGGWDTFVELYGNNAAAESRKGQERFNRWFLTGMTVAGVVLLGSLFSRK

Row | Structure (SMILES) | Ki (Bcl-xL; [4]) | Ki (Bcl-xL; [5]) | EC50 [1] | further results
1 | CNCCOC12CC3(C)CC(C)(CC(Cn4ncc(-c5ccc(-c6ccc7cncc(C(=O)Nc8nc9ccccc9s8)c7c6)nc5C(=O)O)c4C)(C3)C1)C2 [Compound W3.26, 6-[4-(1,3-benzothiazol-2-ylcarbamoyl)isoquinolin-6-yl]-3-[1-({3,5-dimethyl-7-[2-(methylamino)ethoxy]tricyclo[3.3.1.1^3,7]dec-1-yl}methyl)-5-methyl-1H-pyrazol-4-yl]pyridine-2-carboxylic acid] | 0.083 nM | < 0.02 nM | 4.3 nM | –
2 | Cc1c(-c2ccc(N3CCc4cccc(C(=O)Nc5nc6ccccc6s5)c4C3)nc2C(=O)O)cnn1CC12CC3CC(CC(C3)C1)C2 [Compound A-1331852] | – | – | – | Time to lowest count (circulating platelets [2]; dose 25 mg/kg): 6 h; Time after injection at which thrombocytopenia was maximal (circulating platelets [2]): 6 h
3 | Cc1c(-c2ccc(N3CCc4cccc(C(=O)Nc5nc6ccccc6s5)c4C3)nc2C(=O)O)cnn1CC12CC3(C)CC(C)(C1)CC(OCCNCCC(N)=O)(C3)C2 [Compound W3.32, 3-{1-[(3-{2-[(3-amino-3-oxopropyl)amino]ethoxy}-5,7-dimethyltricyclo[3.3.1.1^3,7]dec-1-yl)methyl]-5-methyl-1H-pyrazol-4-yl}-6-[8-(1,3-benzothiazol-2-ylcarbamoyl)-3,4-dihydroisoquinolin-2(1H)-yl]pyridine-2-carboxylic acid] | 0.365 nM | < 0.01 nM | 108 nM | –
4 | CNCC#Cc1cc2c(c(C(=O)Nc3nc4ccccc4s3)c1)CN(c1ccc(-c3cnn(CC45CC6(C)CC(C)(C4)CC(OCCOC)(C6)C5)c3C)c(C(=O)O)n1)CC2 [Compound W3.25, 6-[8-(1,3-benzothiazol-2-ylcarbamoyl)-6-[3-(methylamino)prop-1-yn-1-yl]-3,4-dihydroisoquinolin-2(1H)-yl]-3-(1-{[3-(2-methoxyethoxy)-5,7-dimethyltricyclo[3.3.1.1^3,7]dec-1-yl]methyl}-5-methyl-1H-pyrazol-4-yl)pyridine-2-carboxylic acid] | 0.9 nM | 0.138 nM | 424 nM | –
5 | CNCCOC12CC3(C)CC(C)(CC(Cn4ncc(-c5ccc(-c6ccc7cccc(C(=O)Nc8nc9ccccc9s8)c7c6)nc5C(=O)O)c4C)(C3)C1)C2 [Compound W3.06, 6-[8-(1,3-benzothiazol-2-ylcarbamoyl)naphthalen-2-yl]-3-[1-({3,5-dimethyl-7-[2-(methylamino)ethoxy]tricyclo[3.3.1.1^3,7]dec-1-yl}methyl)-5-methyl-1H-pyrazol-4-yl]pyridine-2-carboxylic acid] | 0.22 nM | < 0.001 nM | 3.8 nM | –
6 | CC1(C)CCC(c2ccc(Cl)cc2)=C(CN2CCN(c3ccc(C(=O)NS(=O)(=O)c4ccc(N[C@H](CCN5CCOCC5)CSc5ccccc5)c(S(=O)(=O)C(F)(F)F)c4)cc3)CC2)C1 [ABT-263, Navitoclax] | – | – | – | Time after injection at which thrombocytopenia was maximal (circulating platelets [3]): 6 h; Time to lowest count (circulating platelets [3]; 100 mg/kg): 6 h
7 | CNCCOC12CC3(C)CC(C)(CC(Cn4ncc(-c5ccc(N6CCc7cccc(C(=O)Nc8nc9ccccc9s8)c7C6)nc5C(=O)O)c4C)(C3)C1)C2 [Example 2.32.24, 6-[8-(1,3-benzothiazol-2-ylcarbamoyl)-3,4-dihydroisoquinolin-2(1H)-yl]-3-[1-({3,5-dimethyl-7-[2-(methylamino)ethoxy]tricyclo[3.3.1.1^3,7]dec-1-yl}methyl)-5-methyl-1H-pyrazol-4-yl]pyridine-2-carboxylic acid] | – | – | – | Platelet number after dosing (circulating platelets [2]; dose 0.61 mg/kg): 6*10^3 /mm^3; Time to lowest count (circulating platelets [2]; dose 0.61 mg/kg): 6 h; Decrease of the platelet number (circulating platelets [2]; dose 0.61 mg/kg, from normal count of approximately 6*10^5/mm^3): 100 fold; Time after injection at which thrombocytopenia was maximal (circulating platelets [2]): 6 h
8 | CNCCOC12CC3(C)CC(C)(CC(Cn4ncc(-c5ccc(-c6ccc7[nH]cc(C(=O)Nc8nc9ccccc9s8)c7c6)nc5C(=O)O)c4C)(C3)C1)C2 [Compound W3.34, 6-[3-(1,3-benzothiazol-2-ylcarbamoyl)-1H-indol-5-yl]-3-[1-({3,5-dimethyl-7-[2-(methylamino)ethoxy]tricyclo[3.3.1.1^3,7]dec-1-yl}methyl)-5-methyl-1H-pyrazol-4-yl]pyridine-2-carboxylic acid] | 0.27 nM | 0.041 nM | 187 nM | –
9 | Cc1c(-c2ccc(N3CCc4cccc(C(=O)Nc5nc6ccccc6s5)c4C3)nc2C(=O)O)cnn1CC12CC3(C)CC(C)(C1)CC(OCCNC1COC1)(C3)C2 [Compound W3.16, 6-[8-(1,3-benzothiazol-2-ylcarbamoyl)-3,4-dihydroisoquinolin-2(1H)-yl]-3-[1-({3,5-dimethyl-7-[2-(oxetan-3-ylamino)ethoxy]tricyclo[3.3.1.1^3,7]dec-1-yl}methyl)-5-methyl-1H-pyrazol-4-yl]pyridine-2-carboxylic acid] | 0.14 nM | < 0.001 nM | 3.7 nM | –

Continued, in another order:

Row | Ki (Bcl-xL; [4]) | Ki (Bcl-xL; [5]) | EC50 [1] | Structure (SMILES) | further results
10 | 0.049 nM | < 0.001 nM | 58.9 nM | Cc1c(-c2ccc(N3CCn4cnc(C(=O)Nc5nc6ccccc6s5)c4C3)nc2C(=O)O)cnn1CC12CC3(C)CC(C)(C1)CC(OCCN)(C3)C2 [Compound W3.04, 3-(1-{[3-(2-aminoethoxy)-5,7-dimethyltricyclo[3.3.1.1^3,7]dec-1-yl]methyl}-5-methyl-1H-pyrazol-4-yl)-6-[1-(1,3-benzothiazol-2-ylcarbamoyl)-5,6-dihydroimidazo[1,5-a]pyrazin-7(8H)-yl]pyridine-2-carboxylic acid] | –
11 | 0.44 nM | 0.015 nM | 37.7 nM | CNC(=O)CCNCCOC12CC3(C)CC(C)(CC(Cn4ncc(-c5ccc(N6CCc7cccc(C(=O)Nc8nc9ccccc9s8)c7C6)nc5C(=O)O)c4C)(C3)C1)C2 [Compound W3.39, 6-[8-(1,3-benzothiazol-2-ylcarbamoyl)-3,4-dihydroisoquinolin-2(1H)-yl]-3-(1-{[3,5-dimethyl-7-(2-{[3-(methylamino)-3-oxopropyl]amino}ethoxy)tricyclo[3.3.1.1^3,7]dec-1-yl]methyl}-5-methyl-1H-pyrazol-4-yl)pyridine-2-carboxylic acid] | –
12 | 0.319 nM | 0.044 nM | 422 nM | CNCCOC12CC3(C)CC(C)(CC(Cn4ncc(-c5ccc(-c6ccc7[nH]nc(C(=O)Nc8nc9ccccc9s8)c7c6)nc5C(=O)O)c4C)(C3)C1)C2 [Compound W3.33, 6-[3-(1,3-benzothiazol-2-ylcarbamoyl)-1H-indazol-5-yl]-3-[1-({3,5-dimethyl-7-[2-(methylamino)ethoxy]tricyclo[3.3.1.1^3,7]dec-1-yl}methyl)-5-methyl-1H-pyrazol-4-yl]pyridine-2-carboxylic acid] | –
13 | 0.014 nM | < 0.01 nM | 18.2 nM | Cc1c(-c2ccc(N3CCn4c(C(F)(F)F)nc(C(=O)Nc5nc6ccccc6s5)c4C3)nc2C(=O)O)cnn1CC12CC3(C)CC(C)(C1)CC(OCCN)(C3)C2 [Compound W3.20, 3-(1-{[3-(2-aminoethoxy)-5,7-dimethyltricyclo[3.3.1.1^3,7]dec-1-yl]methyl}-5-methyl-1H-pyrazol-4-yl)-6-[1-(1,3-benzothiazol-2-ylcarbamoyl)-3-(trifluoromethyl)-5,6-dihydroimidazo[1,5-a]pyrazin-7(8H)-yl]pyridine-2-carboxylic acid] | –
14 | 0.013 nM | < 0.001 nM | 40 nM | CNCCOC12CC3(C)CC(C)(CC(Cn4ncc(-c5ccc(-c6ccc7cccc(C(=O)Nc8nc9ncccc9s8)c7c6)nc5C(=O)O)c4C)(C3)C1)C2 [Compound W3.08, 3-[1-({3,5-dimethyl-7-[2-(methylamino)ethoxy]tricyclo[3.3.1.1^3,7]dec-1-yl}methyl)-5-methyl-1H-pyrazol-4-yl]-6-[8-([1,3]thiazolo[4,5-b]pyridin-2-ylcarbamoyl)naphthalen-2-yl]pyridine-2-carboxylic acid] | –
15 | 0.23 nM | 0.02 nM | 79 nM | Cc1c(-c2ccc(N3CCc4c(O)ccc(C(=O)Nc5nc6ccccc6s5)c4C3)nc2C(=O)O)cnn1CC12CC3(C)CC(C)(C1)CC(OCCN)(C3)C2 [Compound W3.05, 3-(1-{[3-(2-aminoethoxy)-5,7-dimethyltricyclo[3.3.1.1^3,7]dec-1-yl]methyl}-5-methyl-1H-pyrazol-4-yl)-6-[8-(1,3-benzothiazol-2-ylcarbamoyl)-5-hydroxy-3,4-dihydroisoquinolin-2(1H)-yl]pyridine-2-carboxylic acid] | –
16 | 0.17 nM | < 0.01 nM | 8.38 nM | Cc1c(-c2ccc(-c3cc4cccc(C(=O)Nc5nc6ccccc6s5)c4[nH]3)nc2C(=O)O)cnn1CC12CC3(C)CC(C)(C1)CC(OCCN)(C3)C2 [Compound W3.28, 3-(1-{[3-(2-aminoethoxy)-5,7-dimethyltricyclo[3.3.1.1^3,7]dec-1-yl]methyl}-5-methyl-1H-pyrazol-4-yl)-6-[7-(1,3-benzothiazol-2-ylcarbamoyl)-1H-indol-2-yl]pyridine-2-carboxylic acid] | –
